Measured values taken from paper PMC4168026 (BioMed Research International, 2014).
“And” between values parts separate entries of the source, which are not always exact repeats. Identical values can stand only once.

Legend:
CA I [1] = molecular target: T1, CA I (Homo sapiens, UniProt P00915); experiment: Fluorescent thermal shift assay (FTSA), CA I; assay type: binding; details: for Kd: FTSA; for energetic contribution (difference in ΔG of binding), CA I: against compound 2, from FTSA, pH 7.0, 37°C
T1 construct: five isoforms of human recombinant catalytic domains of carbonic anhydrases (CAs); made in house
T1 sequence (P00915 4-261 limits assumed): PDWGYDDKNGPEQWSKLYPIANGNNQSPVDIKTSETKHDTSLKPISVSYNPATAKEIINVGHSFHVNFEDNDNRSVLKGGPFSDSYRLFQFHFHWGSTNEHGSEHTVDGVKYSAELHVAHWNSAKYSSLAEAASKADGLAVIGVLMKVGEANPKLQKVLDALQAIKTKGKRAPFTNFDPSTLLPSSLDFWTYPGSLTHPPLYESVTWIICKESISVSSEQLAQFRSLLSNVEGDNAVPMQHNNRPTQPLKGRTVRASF

CA VII [2] = molecular target: T2, CA VII (Homo sapiens, UniProt P43166); experiment: Fluorescent thermal shift assay (FTSA), CA VII; assay type: binding; details: for Kd: FTSA
T2 construct: five isoforms of human recombinant catalytic domains of carbonic anhydrases (CAs); made in house
T2 sequence (P43166 5-262 limits assumed): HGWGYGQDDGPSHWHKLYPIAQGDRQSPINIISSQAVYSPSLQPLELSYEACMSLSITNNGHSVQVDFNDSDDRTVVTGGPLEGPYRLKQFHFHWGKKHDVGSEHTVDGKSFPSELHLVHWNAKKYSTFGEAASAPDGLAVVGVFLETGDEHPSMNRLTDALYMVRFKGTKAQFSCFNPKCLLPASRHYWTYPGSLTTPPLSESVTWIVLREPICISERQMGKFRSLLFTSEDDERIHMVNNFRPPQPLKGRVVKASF

CA XII [3] = molecular target: T3, CA XII (Homo sapiens, UniProt O43570); experiment: Fluorescent thermal shift assay (FTSA), CA XII; assay type: binding
T3 construct: five isoforms of human recombinant catalytic domains of carbonic anhydrases (CAs); made in house
T3 sequence (O43570 30-289 limits assumed): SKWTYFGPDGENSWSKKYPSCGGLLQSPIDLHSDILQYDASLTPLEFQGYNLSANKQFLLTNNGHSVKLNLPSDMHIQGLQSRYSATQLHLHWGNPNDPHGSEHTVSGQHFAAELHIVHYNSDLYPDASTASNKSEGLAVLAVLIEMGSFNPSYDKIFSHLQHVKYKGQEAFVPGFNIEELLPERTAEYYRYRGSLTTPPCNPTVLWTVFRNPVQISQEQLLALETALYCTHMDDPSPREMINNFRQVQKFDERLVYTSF

CA XIII [4] = molecular target: T4, CA XIII (Homo sapiens, UniProt Q8N1Q1); experiment: Fluorescent thermal shift assay (FTSA), CA XIII; assay type: binding; details: for shift of the melting temperature Tm, CA XIII: compound added to 200 μM, pH 7.0
T4 construct: five isoforms of human recombinant catalytic domains of carbonic anhydrases (CAs); made in house
T4 sequence (Q8N1Q1 4-261 limits assumed): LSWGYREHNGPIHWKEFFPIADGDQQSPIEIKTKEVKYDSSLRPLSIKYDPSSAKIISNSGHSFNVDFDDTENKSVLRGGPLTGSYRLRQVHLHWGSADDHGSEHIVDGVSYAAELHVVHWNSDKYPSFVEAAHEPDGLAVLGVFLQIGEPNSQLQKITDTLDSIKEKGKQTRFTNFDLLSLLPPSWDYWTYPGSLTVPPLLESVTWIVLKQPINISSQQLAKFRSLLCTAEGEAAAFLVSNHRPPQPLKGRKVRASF

CA I [5] = molecular target: T1, CA I; experiment: Isothermal titration calorimetry (ITC), CA I; assay type: binding
CA VII [6] = molecular target: T2, CA VII; experiment: Isothermal titration calorimetry (ITC), CA VII; assay type: binding
CA XII [7] = molecular target: T3, CA XII; experiment: Isothermal titration calorimetry (ITC), CA XII; assay type: binding
CA XIII [8] = molecular target: T4, CA XIII; experiment: Isothermal titration calorimetry (ITC), CA XIII; assay type: binding
CA VII [9] = details: read-out: affinity, CA VII; inhibition method, literature value ref 5; cited from earlier work
CA II [10] = molecular target: T5, CA II (Homo sapiens, UniProt P00918); experiment: Fluorescent thermal shift assay (FTSA), CA II; assay type: binding; details: 37°C, pH 7.0, read-out: Dissociation constants Kd, CA II
T5 construct: five isoforms of human recombinant catalytic domains of carbonic anhydrases (CAs); made in house

CA II [11] = molecular target: T5, CA II; experiment: Isothermal titration calorimetry (ITC), CA II; assay type: binding
[12] = 37°C, pH 7.0, read-out: Dissociation constants Kd, CA I
[13] = 37°C, pH 7.0, read-out: Dissociation constants Kd, CA XIII
[14] = ITC, 37°C, pH 7.0, read-out: Dissociation constants Kd, CA I
[15] = 37°C, pH 7.0, read-out: Dissociation constants Kd, CA VII
[16] = ITC, 37°C, pH 7.0, read-out: Dissociation constants Kd, CA XII
[17] = 37°C, pH 7.0, read-out: Dissociation constants Kd, CA XII
[18] = ITC, 37°C, pH 7.0, read-out: Dissociation constants Kd, CA II

| Kd (CA I [1]; [12]) [µM] | Kd (CA XIII [4]; [13]) | Kd (CA I [5]; [14]) [µM] | Kd (CA VII [6]; [15]) [µM] | Kd (CA XII [7]; [16]) [µM] | Kd (CA XIII [8]; [13]) [µM] | Kd (CA II [10]) [µM] | Kd (CA XII [3]; [17]) [µM] | energetic contribution (difference in ΔG of binding), CA I (CA I [1]) [kcal/mol] | Kd (CA VII [2]; [15]) [µM] | shift of the melting temperature Tm, CA XIII (CA XIII [4]) | Kd (CA II [11]; [18]) [µM] | Structure (SMILES) | further results |
| --- | --- | --- | --- | --- | --- | --- | --- | --- | --- | --- | --- | --- | --- |
| > 10000 | 2000 µM | > 100 | > 100 | > 100 | > 100 | – | – | – | – | – | – | O=C1NS(=O)(=O)c2ccccc21 [Compound 1, saccharin, reference compound] | Kd (CA I [1]; no shift up to 7.5 mM, read-out: Kd, CA I): > 10000 µM; affinity weaker than the literature value, CA VII (CA VII [2]; FTSA Kd against 10 nM of ref 5): 100,000 fold; Kd (CA VII [2]; read-out: Kd, CA VII): 1000 µM; Kd (CA XII [3]; read-out: Kd, CA XII): 5900 µM; Kd (CA XIII [4]; read-out: Kd, CA XIII): 2000 µM; Kd (CA I [5]; ITC, all tested CAs, read-out: Kd, CA I): > 100 µM; Kd (CA VII [6]; all tested CAs, read-out: Kd, CA VII): > 100 µM; Kd (CA XII [7]; ITC, all tested CAs, read-out: Kd, CA XII): > 100 µM; Kd (CA XIII [8]; all tested CAs, read-out: Kd, CA XIII): > 100 µM; Ki (CA VII [9]): 0.01 µM |
| – | ~0.2 µM and 0.2 µM | – | – | – | 0.12 | 0.4 | 0.22 | – | – | – | – | NS(=O)(=O)c1ccc2c(c1)S(=O)(=O)NC2=O [Compound 2] | Kd (CA I [5]): 1.4 µM; Kd (CA II [11]): 0.29 µM; Kd (CA XII [7]): 0.099 µM |
| 0.018 | 0.045 µM | 0.028 | 0.16 | 0.25 | 0.047 | 0.02 | 0.29 | -3.47 | 0.11 | significant | 0.056 | CC#CCN1C(=O)c2ccc(S(N)(=O)=O)cc2S1(=O)=O [Compound 3] | – |
| – | 0.0067 µM | < 0.02 | < 0.02 | 0.04 | < 0.02 | 0.0025 | 0.025 | -5.93 | 0.0043 | significant | < 0.02 | NS(=O)(=O)c1ccc2c(c1)S(=O)(=O)N(CCc1ccccc1)C2=O [Compound 4] | Kd (CA I [1]; read-out: affinity (Kd), CA I): 0.00033 µM |
